Entries after “also recorded” stand apart in the source; their conditions may differ. Read-outs that look alike come from different tables or passages of the source.
Assays:
[1] = tested on: MDR1 expression; test: Inhibition of cytotoxic drug-induced MDR1 expression by cytoplasmic calcium antagonists and calmodulin inhibitors; format: cell-based, human; settings: H9; 200 μM TMB-8
[2] = tested on: tumor; settings: cited from earlier work
[3] = tested on: tumor; settings: nude mice, cited from earlier work
[4] = tested on: MDR1 expression; test: Inhibition of AraC-induced MDR1 expression by phospholipase C inhibitors (RT-PCR); format: cell-based, human; settings: up to 100 μg/mL D609
Method: The inhibitor was added 45 min. prior to the addition of Ara C. Negative control cultures were incubated as above without the addition of either AraC or U73122.
The specificity of phospholipase C-targeted inhibition of MDR1 induction by cytotoxic drugs was determined in a comparative experiment using a known inhibitor of […] phospholipase C (PC-PLC).

[5] = tested on: PC-PLC; settings: Wiegmann et al., 1994; cited from earlier work
[6] = tested on: MDR1 expression; test: Inhibition of cytotoxic drug-induced MDR1 expression by protein kinase inhibitors (cDNA-PCR)
Method: (§1) Cells were plated in 6-well Falcon tissue culture plates at 3,300 cells per well, and incubated in the appropriate concentrations of drugs. Each of the protein kinase inhibitors to be tested were added at the appropriate final concentration 45 minutes prior to MDR1 induction by the addition of Ara-C or TPA, with the exception of herbimycin A, which was added 12 hours prior to Ara-C or TPA, and tyrphostins A25 and B46, which were each added 16 hours prior to MDR1 induction by the addition of Ara-C or TPA. Cells were incubated overnight (TPA) or for 10 hours (Ara-C) at 37° C./ 5% CO2 after the addition of the MDR1 inducing agents before harvesting for cDNA-PCR analysis.
In addition, the analysis of certain drugs imposed added requirements. For experiments using calphostin C, cells were incubated under direct white light illumination. For experiments using D,L-threo-sphingosine, the cell culture medium was pre-treated with the appropriate concentration of the drug for one hour at 37° C. with continuous gentle mixing. After this pretreatment, cells were resuspended in media supplemented with drug and incubated for 45 minutes as described above.
To further evaluate the capacity of protein kinase inhibitors to suppress MDR1 induction by cytotoxic drugs and PKC agonists, H-9 human T-cell leukemia cells were used in cDNA-PCR assays to examine induced MDR1 mRNA expression levels in the presence of protein kinase inhibitors.

[7] = tested on: PKC; settings: in words; cited from earlier work
[8] = tested on: protein kinases; settings: Pelosin et al., 1990; cited from earlier work
[9] = tested on: MDR1 expression (P-glycoprotein); test: MDR1/P-glycoprotein expression in human cells treated with TPA, DOG, other agents (Rh123 accumulation, UIC2 staining, cDNA-PCR); format: cell-based
Method: KG1 cell line was maintained in Iscove's modified Dulbecco medium with 20% fetal calf serum (FCS) and 2 mM L-glutamine, 100 units/mL penicillin and 100 μg/mL streptomycin (GIBCO Laboratories, Grand Island, N.Y.).
(§2) PBL were treated with 1 ng/mL TPA; H9 and K562 cells with 10 ng/mL TPA; KG1a and KG1 cells with 100 ng/mL TPA and the other cell lines with 10 ng/mL TPA.
Mouse IgG2a isotype control antibody was obtained from Sigma. For staining of PBL with UIC2 mAb or isotype control, 10^6 cells were stained at 4° C. with 10 μg of the antibody for 30 minutes and, after two washes, stained for 30 minutes with 10 μg of FITC-conjugated goat anti-mouse IgG2a antibody (Fisher Scientific, Fairlawn, N.J.), diluted 1:2 with PBS plus 2% FCS. Cells were then washed twice with ice-cold PBS plus 2% FCS, stained with PI and kept on ice until analysis. Essentially the same protocol was used for staining of other cell types except that 2 μg of the secondary antibody were used per 10^6 cells. In some experiments, phycoerythrine (PE)-conjugated goat anti-mouse IgG2a was used as the secondary antibody; no PI was added in such cases.
(§3) (Commercially-available kits (for example, from GIBCO/BRL, Gaithersburg, Md.) can be advantageously modified for making cDNA using random hexamers.) PCR is then performed using the following primers: […]
(§4) (where β2 M represents β2 microglobulin). PCR was performed for β2 M experiments under a regime consisting of 1 cycle comprising denaturation at 94° C. for 3 minutes, primer annealing at 60° C. for 30 seconds, and primer extension at 72° C. for 1 minute, followed by 19 cycles comprising denaturation at 94° C. for 30 seconds, primer annealing at 60° C. for 30 seconds, and primer extension at 72° C. for 1 minute, followed by a final cycle comprising denaturation at 94° C. for 30 seconds, primer annealing at 60° C. for 30 seconds, and primer extension at 72° C. for 5 minutes. MDR1 cDNA sequences were amplified using the identical protocol as for β2 M, but extending the amplification from 19 cycles to 25 cycles. In addition, the cDNA-PCR amplification protocol contained the following modifications: (i) Taq DNA polymerase was added to the PCR mixtures after initial heating of the samples to 94° C. (ii) The yield of the β2 -microglobulin-specific band, obtained after 22-28 cycles of PCR, was used as the primary criterion for equalizing the starting amounts of the cDNA templates in different preparations, in order to account for differential RNA degradation in cells subjected to different types of treatment. ^32 P-labeled PCR products were detected by autoradiography.
A functional assay was used to detect changes in P-glycoprotein activity in human PBL treated with different agents that induce lymphoid differentiation or activation, based on flow cytometric analysis of cellular accumulation of Rh123, which is a P-glycoprotein-transported fluorescent mitochondrial dye. In this assay, cells expressing little or no P-glycoprotein stain brightly with Rh123, whereas cells with higher levels of P-glycoprotein activity appear Rh123-dull. […] Since the best-known cellular effect of TPA is the stimulation of PKC, DOG (a cell-permeable diacylglycerol and a physiological stimulant of PKC) was also tested to determine its effects on Rh123 accumulation in PBL.

[10] = tested on: MDR1 expression (P-glycoprotein); test: MDR1/P-glycoprotein expression in mouse hematopoietic cell lines; format: cell-based
Method: as §2
Since PBL comprise a heterogeneous population of many different subtypes, a series of leukemia-derived clonal cells lines were tested for changes in P-glycoprotein expression after treatment with TPA.

[11] = tested on: MDR1 expression; settings: cited from earlier work
[12] = tested on: MDR1 expression; test: Inhibition of TPA- or DOG-induced MDR1 expression; format: cell-based, human; settings: staurosporine 30 nM
Method: as §2, §1

[13] = tested on: MRP expression; test: Inhibition of MRP mRNA expression in H-9 cells (cDNA-PCR); format: cell-based, human; settings: 100 nM
Method: Cells were plated in 6-well Falcon tissue culture plates at 3,300 cells per well, and incubated in the appropriate concentrations of drugs. Each of the protein kinase inhibitors to be tested were added at their appropriate final concentrations, and the cells then incubated for 10 hours at 37° C. under an atmosphere of 5% CO2.
PCR was performed using the following primers: […]
(where β2 M represents β2 microglobulin). PCR was performed for β2 M experiments under a regime consisting of 1 cycle comprising denaturation at 94° C. for 3 minutes, primer annealing at 60° C. for 30 seconds, and primer extension at 72° C. for 1 minute, followed by 19 cycles comprising denaturation at 94° C. for 30 seconds, primer annealing at 60° C. for 30 seconds, and primer extension at 72° C. for 1 minute, followed by a final cycle comprising denaturation at 94° C. for 30 seconds, primer annealing at 60° C. for 30 seconds, and primer extension at 72° C. for 5 minutes.
H-9 cells were used to analyze the effect of various protein kinase inhibitors on the expression of the multidrug resistance associated protein MRP (Grant et al., ibid.).

[14] = tested on: MDR1 expression (P-glycoprotein); test: Induction of MDR1 expression by cytotoxic drugs (dye efflux, UIC2, cDNA-PCR); format: cell-based, human
Method: as §3, §4
In particular PKC is activated by treatment with Ara-C. Therefore, experiments were performed to test whether Ara-C, which is not transported by P-glycoprotein, would have any effect on P-glycoprotein function in K562 leukemia cells.
(§5) Also assayed was whether drug-induced MDR1 expression was maintained after cytotoxic drug treatment. […] At different times, MDR1 expression in the surviving cells was analyzed by dye efflux and immunofluorescence labeling with UIC2 (FIG. 3C) or by cDNA-PCR (FIG. 4E).

[15] = tested on: K562 cells
Method: FIG. 6A. Growth inhibition by vinblastine in untreated and Ara-C (ARA)- or Adriamycin (ADR)-treated cells. Cells were treated as in FIG. 3C and grown in the absence of drugs for six weeks. Vinblastine inhibition assay was carried out for 10 days.
FIG. 6B. Growth inhibition by vinblastine in untreated cells and Rh123-dull and Rh123-bright populations of Ara-C treated cells. […] One week after sorting, vinblastine inhibition assay was carried out for 7 days.
Cells were plated in duplicate in 96-well microtiter plates at 3,000 cells per well, and allowed to grow in increasing concentrations of different drugs.
as §5

## 8-(dimethylamino)octyl-3,4,5-trimethoxybenzoate hydrochloride [TMB-8]
[1]
  inhibition of AraC-induced MDR1 gene expression: completely abrogate the ability of AraC to induce MDR1 gene expression

## CCN(CC)CCN1C(=O)c2c(c3c4cccc(Cl)c4n([C@@H]4O[C@H](CO)[C@@H](OC)[C@H](O)[C@H]4O)c3c3[nH]c4c(Cl)cccc4c23)C1=O [BMY 27557, 8-N-(diethylaminoethyl) rebeccamycin]
[2]; nine injections at 12 mg/kg/injection
  optimal total i.p. dose: 108 mg/kg
[2]; single dose
  optimal single i.p. dose: 64 mg/kg

## CO[C@@H]1[C@H](N(C)C(=O)c2ccccc2)C[C@H]2O[C@]1(C)n1c3ccccc3c3c4c(c5c6ccccc6n2c5c31)C(=O)NC4 [CGP 41 251]
[3]; Meyer et al., 1989
  dose showing anti-tumor effect relative to MTD: anti-tumor effect at one-tenth of their maximum tolerated doses

## S=C(S)OC1CC2CC1C1CCCC21 (stereo not shown) [D609, tricyclodecan-9-yl-xanthogenate potassium]
[4]
  inhibition of AraC-induced expression of MDR1: without an effect; also recorded: incapable of inhibiting AraC-induced expression of MDR1
[5]
  concentration known to inhibit PC-PLC: 100 µg/mL

## N=C(N)NCCNS(=O)(=O)c1cccc2cnccc12 [HA1004]
[6]
  inhibition of MDR1 induction by cytotoxic drugs: totally ineffective
[7]
  PKC inhibition: inactive against PKC

## CC1CN(S(=O)(=O)c2cccc3cnccc23)CCN1 (stereo not shown) [Iso-H7]
[6]; Iso-H7, H-9 cells
  inhibition of Ara-C induced MDR1 expression: No significant inhibition
[8]
  weaker effect on protein kinases than H7: 10 fold

## CCCCCCCCCCCCCC(=O)O[C@@H]1[C@@H](C)[C@@]2(O)[C@@H](C=C(CO)C[C@]3(O)C(=O)C(C)=C[C@@H]23)[C@@H]2C(C)(C)[C@]12OC(C)=O [TPA, 12-o-tetradecanoylphorbol-13-acetate]
[9]; EJ bladder carcinoma cells
  increase of MDR1 expression after treatment: increase of MDR1 expression
[9]; H9 cells
  induction of MDR1 mRNA and P-glycoprotein: efficiently induced readily detectable levels of MDR1 expression
[9]; KG1 and KG1a cells (P-glycoprotein positive)
  P-glycoprotein expression after exposure: large increase in their P-glycoprotein expression
[9]; MCF-7 breast carcinoma cells
  increase of MDR1 expression after treatment: increase of MDR1 expression
[9]; human PBL
  levels of P-glycoprotein on the cell surface (UIC2): markedly increased the levels of P-glycoprotein on the cell surface
[9]; normal human PBL and leukemia/solid tumor cell lines
  MDR1 gene expression: increase MDR1 gene expression
[10]; and LBRM 33 lymphoma
  P-glycoprotein expression after exposure: large increase in their P-glycoprotein expression

## O=c1c(O)c(-c2ccc(O)c(O)c2)oc2cc(O)cc(O)c12 [quercetin]
[7]
  PKC inhibition: inhibition of PKC activity
[3]; i.p. 20 mg/kg, Grunicke et al.
  effect on anti-tumor effect of cisplatin: potentiate the anti-tumor effect of cisplatin
[11]
  effect on arsenite-induced increase in MDR1 expression: prevent an increase in MDR1 expression

## CN[C@@H]1C[C@H]2O[C@@](C)([C@@H]1OC)n1c3ccccc3c3c4c(c5c6ccccc6n2c5c31)C(=O)NC4 [staurosporine]
[9]; KG1, KG1a (P-glycoprotein positive)
  P-glycoprotein expression, compound alone: significant increase in P-glycoprotein expression
[9]; P-glycoprotein-negative H9 cells
  induction of MDR1 expression, compound alone: did not induce MDR1 expression
[9]; some P-glycoprotein-positive cell lines (human; mouse lines also used)
  P-glycoprotein expression: significantly increased P-glycoprotein expression
[10]; mouse EL4 and LBRM 33 (P-glycoprotein positive)
  P-glycoprotein expression, compound alone: significant increase in P-glycoprotein expression
[12]; H9 cells / P-glycoprotein-negative cells
  inhibition of DOG (diacylglycerol)-induced MDR1 expression: completely abolished MDR1 induction; also recorded: prevent MDR1 induction
[12]; H9 cells
  inhibition of TPA-induced MDR1 expression: completely abolished MDR1 induction; also recorded: completely inhibited TPA-induced MDR1 expression; also recorded: prevent MDR1 induction
[6]
  prevention of MDR1 induction by chemotherapeutic drugs: prevent MDR1 induction
[6]; concentration not stated
  inhibition of MDR1 induction by cytotoxic drugs: capable of inhibiting MDR1 induction by cytotoxic drugs
[13]
  MRP expression: capable of inhibiting MRP expression; also recorded: strongly inhibited

## CC[C@]1(O)C[C@@H]2CN(CCc3c([nH]c4ccccc34)[C@@](C(=O)OC)(c3cc4c(cc3OC)N(C)[C@H]3[C@@](O)(C(=O)OC)[C@H](OC(C)=O)[C@]5(CC)C=CCN6CC[C@]43[C@@H]65)C2)C1 [vinblastine]
[14]
  MDR1 induction: MDR1 induction, both at the mRNA and at the protein levels, was observed
  MDR1 mRNA expression: induce MDR1 mRNA expression
  Rh123 or DiOC2(3) efflux by treated cells: 3-10%
[15]
  increase in resistance: 2-3 fold
  increase in the ID10 value: 2-3 fold

Source: patent US6171786A, “Methods for preventing multidrug resistance in cancer cells” (priority 1996, dated 2001)
